Legend:
GLUTag cells [1] = experiment: GLP-1 release from GLUTag cells (GLP-1 ELISA); assay type: cell-based, mouse; conditions: for IC50: Mus musculus, GLUTag cells
GLUTag cells [2] = experiment: GLP-1 release from GLUTag cells (GLP-1 ELISA); assay type: cell-based, mouse; conditions: 12.5 mM glucose, FIG. 17
Description: Mouse GLUTag cells are a native intestinal cell line which expresses TRPM5. The cell line was obtained from Dr. Daniel J. Drucker in the Division of Endocrinology, Department of Medicine, at University of Toronto, and grown in Invitrogen Dulbecco's Modified Eagle's Medium (DMEM) high glucose (Cat #: 11995) with 10% fetal bovine serum (FBS) and 1× penn/strep antibiotic mix in a 37° C. incubator with 5% CO2.
All reagents and media were pre-warmed to room temperature prior to the beginning of the experiment. Substrate diluent and the light-sensitive Substrate were thawed out right before use.
BD 96-well Matrigel-coated plates (Fisher, Cat #: 08-774-166) with GLUTag cells were rehydrated using 100 μL of plating media (Invitrogen's (Cat #: 31985) OPTI-Modified Eagle's Medium (MEM) with 10% FBS and 1× penn/strep antibiotic mix) and incubated for 30 minutes in a 37° C. incubator with 5% CO2. GLUTag cells were then trypsinized and counted. A cell dilution with seeding density of 7.5×10^5 cells/ml of GLUTag cells was created. The rehydration media was aspirated from the Matrigel coated plate. […] of cell dilution were plated into each well of the plate. The plates were then incubated overnight in a 37° C. incubator with 5% CO2.
The following protocol utilized the Millipore GLP-1 ELISA Kit (Cat. #: EGLP-35K) to analyze GLP-1 secretion from GLUTag cells in the presence of TRPM5 inhibitors/enhancers and glucose.
Stock solutions and dilution plates of TRPM5 inhibitors or enhancers were prepared. 1% of bovine serum albumin (BSA) was added to Krebb's Ringer Bicarbonate Buffer (KRBB) right before use. KRBB consists of 118.5 mM NaCl, 2.54 mM CaCl2.2H2O, 1.19 mM KH2PO4, 4.74 mM KCl, 25 mM NaHCO3, 1.19 mM MgSO4.7H2O, and 10 mM HEPES buffer at pH 7.4. The cell plates were incubated with 100 μL of KRBB for 30 minutes. The KRBB buffer was then aspirated. This incubation step was repeated once. The KRBB buffer was aspirated and replaced with 150 μL of the same buffer containing various concentration of TRPM5 inhibitors or enhancers and glucose, i.e. 12.5 mM glucose and 1.5 μM TRPM5 inhibitors. KRBB buffer without the TRPM5 inhibitors/enhancers and glucose were also tested in triplicates. Static incubations of treated cells were then performed for 2 h in a 37° C. incubator with 5% CO2.
During the last 30 minutes of the two-hour incubation, 96-well ELISA plates were prepared as follows. […]

[3] = moderately high glucose (3.3 mM), FIG. 18

For COc1ccc(/C=N/NC(=O)Cc2cccc3ccccc23)cc1OC [Example 3, (E)-N′-(3,4-Dimethoxybenzylidene)-2-(naphthalene-1-yl)acetohydrazide], the GLP-1 secretion (GLUTag cells [1]; 10 mM glucose, FIG. 16) was “enhances GLP-1 secretion”, the IC50 (GLUTag cells [1]; low glucose (0.1 mM), FIG. 19) was 600 nM and the GLP-1 release (GLUTag cells [1]; low glucose (0.1 mM), FIG. 19) was “increase GLP-1 release”. For the same compound, the GLP-1 release (GLUTag cells [1]; [3]) was “increase GLP-1 release”, the GLP-1 secretion (GLUTag cells [2]) was “increase GLP-1 secretion” and the “efficacy and potency of GLP-1 secretion, compared between compounds” value (GLUTag cells [2]) was “increases the efficacy of GLP-1 secretion”.

COc1ccc(/C=N/NC(=O)CCn2c3ccccc3c3ccccc32)cc1OC [Example 23, 3-Carbazol-9-ylpropionic acid (3,4-dimethoxybenzylidene)hydrazide] was tested, and the IC50 (GLUTag cells [1]; low glucose (0.1 mM), FIG. 19) was 111 nM, the GLP-1 release (GLUTag cells [1]; low glucose (0.1 mM), FIG. 19) was “increase GLP-1 release” and the GLP-1 release (GLUTag cells [1]; [3]) was “increase GLP-1 release”. For the same compound, the GLP-1 secretion (GLUTag cells [2]) was “increase GLP-1 secretion” and the “efficacy and potency of GLP-1 secretion, compared between compounds” value (GLUTag cells [2]) was “more potent than the compound of Example 3”.

From patent US8193168B2, “Use of a TRPM5 inhibitor to regulate insulin and GLP-1 release” (Redpoint Bio Corporation, priority 2007, dated 2012)
